Test results from patent US20240285670A1, “THERAPEUTIC TREATMENT OF TUMORS BY BLOCKING THE HEME SYNTHESIS-EXPORT AXIS” (Università degli Studi di Torino, priority 2021, published 2024).

Legend:
[1] = tested on: BTECs; assay: Mitochondrial ATP levels in BTECs; format: cell-based, human; conditions: FLVCR1a-silenced vs scramble shRNA BTECs
Excerpt: Results were expressed as nmol NAD*/min/mg mitochondrial protein for complex I, nmol reduced cytochrome c/min/mg mitochondrial protein for complexes II-III, nmol oxidized cytochrome c/min/mg mitochondrial protein for complex IV. Data represent mean±SEM, n=3. For statistical analyses, an unpaired Student's t-test was used; *=p<0.05, **=p<0.01, *=p<0.001. […] Results are expressed as nmol/mg mitochondrial proteins. Data represent mean±SEM, n=3. For statistical analyses, an unpaired Student's t-test was used; *=p<0.05. […] Results are expressed as pmol CO2/h/mg protein. Data represent mean±SEM, n=3. For statistical analyses, an unpaired Student's t-test was used; **=p<0.01. […] Results were expressed as nmol NAD*/min/mg mitochondrial protein for complex I, nmol reduced cytochrome c/min/mg mitochondrial protein for complexes II-III, nmol oxidized cytochrome c/min/mg mitochondrial protein for complex IV. […] Results are expressed as nmol/mg mitochondrial proteins. […] Results are expressed as pmol CO2/h/mg protein. […] (H) TCA cycle enzymes activities are reported in boxes and expressed as mU/mg mitochondrial proteins. […] Results were expressed as nmol NAD^+/min/mg mitochondrial protein for complex I, nmol reduced cytochrome c/min/mg mitochondrial protein for complexes II-III, nmol oxidized cytochrome c/min/mg mitochondrial protein for complex IV. […] Results are expressed as nmol/mg mitochondrial proteins. […]

[2] = tested on: Caco2 cells; assay: TCA cycle enzymes activities in Caco2 cells; format: cell-based, human; conditions: FLVCR1a knockdown vs scramble shRNA Caco2 cells
Excerpt: TCA cycle flux is reported in the centre of the figure and expressed as pmol CO2/h/mg protein. Data represent mean±SEM, n=3. For statistical analyses, an unpaired Student's t-test was used. **=p<0.01. Moreover, TCA cycle enzymes activities are reported in boxes and expressed as mU/mg mitochondrial proteins. Data represent mean±SEM, n=3. For statistical analyses, an unpaired Student's t-test was used; *=p<0.05, ***=p<0.001. […] Results are expressed as pmol CO2/h/mg protein. Data represent mean±SEM, n=3. For statistical analyses, an unpaired Student's t-test was used; *=p<0.05, **=p<0.01. […]
The enzymatic activities of citrate synthase, α-ketoglutarate dehydrogenase, succinate dehydrogenase and malate dehydrogenase were measured on 10 μg mitochondrial proteins using the Citrate Synthase Assay Kit (Sigma Aldrich, St. Louis, MO USA, catalog n° MAK193), Alpha Ketoglutarate (alpha KG) Assay Kit (Abcam, Cambridge, UK, catalog n° ab83431), Malate Dehydrogenase Assay Kit (Sigma Aldrich, St. Louis, MO USA, catalog n° MAK196), Succinate Dehydrogenase Activity Colorimetric Assay Kit (BioVision, Milpitas, CA USA, catalog n° K660), as per manufacturer's instructions. Results were expressed as mU/mg mitochondrial proteins.

FLVCR1a shRNA: shRNA specifically down-regulating FLVCR1a without targeting FLVCR1b; pLKO.1 lentiviral clone TRCN0000059599, antisense SEQ ID No.: 2 (antisense TTGCTAATGATGCTGTACTGG; sense CCAGTACAGCATCATTAGCAA)
mitochondrial ATP levels [1]: increased mitochondrial ATP levels
TCA cycle enzymes activity (citrate synthase, α-ketoglutarate dehydrogenase, succinate dehydrogenase, malate dehydrogenase) [2]: enhanced activity
